From patent US8410075B2, “Mannich base N-oxide drugs” (Cascade Prodrug Inc., priority 2007, dated 2013)

Assays:
[1] = Hydrolysis of Mannich bases; format: physicochemical
Method: We observed that indole-derived Mannich bases 30, 32 and 34, unlike the other Mannich bases herein described, were quite stable toward hydrolysis. For example, only 30% of Mannich base 34 was hydrolyzed after 80 h in D2O.

[2] = observed by Sloan et al.; could not be isolated as a stable molecule; cited from earlier work
[3] = Reduction of 5-FU-derived Mannich base N-oxides with triphenylphosphine in CDCl3 and hydrolysis to 5-fluorouracil (1H and 19F NMR); format: physicochemical; conditions: mixture of N-oxides 3 and 4, 2 equiv triphenylphosphine in CDCl3 at RT, 70-h time period
Method: Triphenylphosphine is known to reduce N-oxides to the corresponding amines See Gallos, J. K. and Argyropoulos, N. G. Synthesis 1:83-86 (1991). A mixture of N-oxides 3 and 4 was dissolved in CDCl3 and then treated with 2 equiv of triphenylphosphine in CDCl3 at RT and monitored by ^1H and ^19F NMR spectroscopy. According to the ^1H and ^19F NMR spectra, the N-oxides underwent reduction and spontaneous hydrolysis to 5-fluorouracil to the extent of about 90% over a 70-h time period. Thus, not only are the N-oxide groups reduced back to the corresponding Mannich bases, but also the Mannich bases undergo hydrolysis back to 5-FU in the presence of adventitious water.

[4] = Stability of Mannich base N-oxides in D2O monitored by 1H NMR; format: physicochemical; conditions: for at least several days
Method: The mixture of 3 and 4 was rechromatographed on a Chromatotron with 5:3:0.3 dichloromethane/methanol/ammonia as eluent to give 200 mg (22%) of the N^3 isomer 3 (faster moving isomer on TLC) which was pure by TLC, ^1H and ^19F NMR spectroscopy. The ^1H and ^19F NMR spectra of 3 (D2O) were consistent with the assigned structure. APCI MS (m/e): Calcd. for C9H12FN3O4 (M+H), 246.0; found (M+H) 246.0. Continued elution gave 140 mg (15% yield) of the N^1 isomer 4 (slower moving spot on TLC), which was pure by TLC, ^1H and ^19F NMR spectroscopy. APCI MS (m/e): Calcd. for C9H12FN3O4 (M+H), 246.0; found (M+H) 246.0. N-oxides 3, 4, and 5 were stable in D2O for at least several days as monitored by ^1H NMR spectroscopy. The structures of Mannich base N-oxides 3 and 4 were confirmed by single crystal x-ray analysis. Example 6

[5] = Rearrangement of Mannich base N-oxides to O-substituted hydroxylamine isomers in solution (NMR); format: physicochemical; conditions: for conversion to rearranged product 20: chloroform solution at RT for 72 h
Text: Examples 5-14 describe the synthesis of several Mannich bases (structures B and structures G in Chart 1) and the corresponding Mannich base N-oxides (structures C and H). In cases where R═H in structure A, the synthesis of the rearranged N-oxide isomer D is also described. […] However, when R═H in A, the Mannich base N-oxide C (R═H) undergoes rearrangement over time to the corresponding isomer D. Rearrangement tends to be very slow (several days) in aqueous solution but more rapid (a few hours) in CDCl3 and depends to some extent on which secondary amine was used to prepare the Mannich base. In one case, the hydrochloride salt (structure E) of a Mannich base N-oxide C where R═H was prepared. Mannich base N-oxide salt E was stable toward rearrangement.
N-(Dimethyl-N′-oxido-aminomethyl)-benzamide (13) and N-(Dimethyl-aminooxymethyl)-benzamide (14). Mannich base 12 (0.18 g, 0.001 mol) was dissolved in dichloromethane (5 mL) and then solid MCPBA (0.26 g, 0.0015 mol) was added to the stirred solution in an ice/water bath. After stirring for 20 min as the solution warmed to RT, the solvent was evaporated. The residue was chromatographed on a Chromatotron with dichloromethane/methanol as eluent. Evaporation of the eluent in the cold is accompanied by rearrangement, giving 150 mg (66%) of the mixture Mannich base N-oxide 13 (Rf˜0.2 in dichloromethane/methanol, 5:1) and the rearranged benzamide derivative 14 (Rf˜0.8 in dichloromethane/methanol, 5:1). A sample of the mixture was allowed to stand in CDCl3 at RT while it was monitored by ^1H NMR.
N-(Piperidin-1-oxido-1-yl-methyl)-benzamide (16) and N-(Piperidin-1-yloxymethyl)-benzamide (17). Mannich base 15 (0.2 g, 0.92 mmol) was dissolved in 2 mL of dichloromethane and then the solution was added to a stirred solution of MCPBA (0.24 g, 1. 14 mmol) in 2 mL of dichloromethane in an ice/water bath. After 5 min of stirring at RT, the solvent was evaporated and the residue was chromatographed on a Chromatotron with dichloromethane/methanol mixture, 5:1 to 5:3 as eluent. The desired fractions were combined and the solvents were evaporated to give Mannich base N-oxide 16 (0.15 g, 72% yield). […] The ^1H and ^13C NMR spectra of 17 are consistent with the assigned structure. […] It was difficult to get clean NMR spectra of 16 in any solvent.
N-(Morpholin-4-oxido-4-ylmethyl)-benzamide (19) and N-(Morpholin-4-oxido-4-ylmethyl)-benzamide Hydrochloride (21) and N-(Morpholin-4-yloxymethyl)-benzamide (20). Mannich base 18 (0.283 g, 1.3 mmol) was dissolved in dichloromethane (6 mL) and the solution was cooled in an ice/water bath. To this stirred solution MCPBA (0.3 g, 1.7 mmol) was added as a solid. After 10 min the reaction mixture was divided in half. The first half was evaporated and chromatographed on a Chromatotron with dichloromethane/methanol 5:0.5 to 5:2 as eluent giving mostly rearranged product 20 (0.1 g, 67%). […] The ^1H and ^13C NMR spectra of 20 were consistent with the assigned structure. APCI MS (m/z): Calcd. for 20, C12H17N2O3 (M+1) 236.1; Found 236.1 A sample of 20 was recrystallized from EtOAc/hexanes giving crystals that were subject to x-ray analysis.
The second half of the MCPBA oxidation solution was extracted with 1N HCl. The water layer was evaporated to dryness and then the residue was treated with dichloromethane and re-evaporated to give the N-oxide HCl salt 21 (0.11 g, 73%) as a waxy solid which was stable in CDCl3 solution for several days. The ^1H NMR spectra were consistent with the assigned structure. […] A sample of 21 was recrystallized from MeOH/Et2O giving crystals that were subject to x-ray analysis. APCI MS (m/z APCI MS (m/z): Calcd. 21 C12H17N2O3 (M+1) 236.1; Found 236.1.

O=c1c(F)cn(CN2CCOCC2)c(=O)n1CN1CCOCC1 [Mannich base 2, 5-Fluoro-1,3-bis-morpholin-4-ylmethyl-1H-pyrimidine-2,4-dione]
stability toward hydrolysis [1]: extreme sensitivity

CN(C)Cn1cc(F)c(=O)n(CN(C)C)c1=O [Mannich base 6, 1,3-Bis-dimethylaminomethyl-5-fluoro-1H-pyrimidine-2,4-dione]
sensitivity toward hydrolysis [2]: very sensitive

CN(C)Cn1ccc2ccccc21 [Mannich base 32, N-(Dimethylaminomethyl)-indole]
stability toward hydrolysis [1]: quite stable

O=c1[nH]cc(F)c(=O)n1C[N+]1([O-])CCOCC1 [Mannich base N-oxide 3, 5-Fluoro-3-(4-oxido-morpholin-4-yl-methyl)-1H-pyrimidine-2,4-dione]
extent of reduction and spontaneous hydrolysis to 5-fluorouracil [3]: about 90%
stability in D2O [4]: stable

O=c1[nH]c(=O)n(C[N+]2([O-])CCOCC2)cc1F [Mannich base N-oxide 4, 5-fluoro-1-(4-oxido-morpholin-4-yl-methyl)-1H-pyrimidine-2,4-dione]
extent of reduction and spontaneous hydrolysis to 5-fluorouracil [3]: about 90%
stability in D2O [4]: stable

O=c1c(F)cn(C[N+]2([O-])CCOCC2)c(=O)n1C[N+]1([O-])CCOCC1 [Mannich base N-oxide 5, 5-fluoro-1,3-bis-(4-oxido-morpholin-4-yl-methyl)-1H-pyrimidine-2,4-dione]
stability in D2O [4]: stable

O=C(NC[N+]1([O-])CCCCC1)c1ccccc1 [Mannich base N-oxide 16, N-(Piperidin-1-oxido-1-yl-methyl)-benzamide]
rearranged product 17 in 1H NMR spectrum ([5]; D2O): 10-20%
onset of rearrangement of 16 to 17 ([5]; after adding CDCl3): starts immediately

O=C(NC[N+]1([O-])CCOCC1)c1ccccc1 [Mannich base N-oxide 19, N-(Morpholin-4-oxido-4-ylmethyl)-benzamide]
conversion to rearranged product 20 [5]: clean conversion

Cl.O=C(NC[N+]1([O-])CCOCC1)c1ccccc1 [N-oxide HCl salt 21, N-(Morpholin-4-oxido-4-ylmethyl)-benzamide Hydrochloride]
stability in CDCl3 solution ([5]; CDCl3 solution, several days): stable
conversion to rearranged product 20 [5]: no rearranged product 20 was formed

N-(Dimethyl-N′-oxido-aminomethyl)-benzamide [Mannich base N-oxide 13]
conversion to the rearranged product ([5]; CDCl3 at RT, over several hours, 1H NMR): Essentially complete conversion
